Key:
[1] = test system: HCT 116 cells; test: CellTiter-Glo assay in HCT 116 cells; type: cell-based, human; settings: Homo sapiens, HCT-116, 120 h, 5 days incubation, 30 μM to 0.0015 μM
Description: CellTiter-Glo™ Assay in HCT 116 Cells
The CellTiter-Glo™ Luminescent Cell Viability Assay (Promega) is a homogeneous method of determining the number of viable cells in culture based on quantitation of the ATP present, which signals the presence of metabolically active cells.
HCT 116 cells (human colon carcinoma, ATCC-No. CCl-247) were cultivated in RPMI 1640 medium with GlutaMAX™ I (Invitrogen, Cat-No. 61870-010), 2.5% Fetal Calf Serum (FCS, Sigma Cat-No. F4135 (FBS)); 100 Units/ml penicillin/100 μg/ml streptomycin (=Pen/Strep from Invitrogen Cat. No. 15140). For the assay the cells were seeded in 384 well plates, 1000 cells per well, in the same medium. The next day the test compounds were added in various concentrations ranging from 30 μM to 0.0015 μM (10 concentrations, 1:3 diluted). After 5 days the CellTiter-Glo™ assay was done according to the instructions of the manufacturer (CellTiter-Glo™ Luminescent Cell Viability Assay, from Promega). In brief: the cell-plate was equilibrated to room temperature for approximately 30 minutes and than the CellTiter-Glo™ reagent was added. The contents were carefully mixed for 15 minutes to induce cell lysis. After 45 minutes the luminescent signal was measured in Victor 2, (scanning multiwell spectrophotometer, Wallac).
1st. Day: • Medium: RPMI 1640 with GlutaMAX™ I (Invitrogen, Cat-Nr. 61870), 5% FCS (Sigma Cat.-No. F4135), Pen/Strep (Invitrogen, Cat No. 15140). • HCT116 (ATCC-No. CCl-247): 1000 cells in 60 μl per well of 384 well plate (Greiner 781098, μClear-plate white) • After seeding incubate plates 24 h at 37° C., 5% CO2
2nd. Day: Induction (Treatment with Compounds, 10 Concentrations):
In order to achieve a final concentration of 30 μM as highest concentration 3.5 μl of 10 mM compound stock solution were added directly to 163 μl media. Then step e) of the dilution procedure described below, was followed.

[2] = target: T1, Aurora A (Homo sapiens, UniProt O14965); test: IC50 determination for inhibitors of Aurora A (96 MTP-ELISA); type: biochemical; settings: His4-tagged full-length Aurora A 250 ng/ml, PKB-GSK2 200 nM, ATP 4 μM, 90 min at room temperature, read-out: IC50 Aurora A kinase inhibition
T1 construct: C-terminally Histidine4 (His4)-tagged Aurora A full-length protein
T1 sequence (O14965 1-403): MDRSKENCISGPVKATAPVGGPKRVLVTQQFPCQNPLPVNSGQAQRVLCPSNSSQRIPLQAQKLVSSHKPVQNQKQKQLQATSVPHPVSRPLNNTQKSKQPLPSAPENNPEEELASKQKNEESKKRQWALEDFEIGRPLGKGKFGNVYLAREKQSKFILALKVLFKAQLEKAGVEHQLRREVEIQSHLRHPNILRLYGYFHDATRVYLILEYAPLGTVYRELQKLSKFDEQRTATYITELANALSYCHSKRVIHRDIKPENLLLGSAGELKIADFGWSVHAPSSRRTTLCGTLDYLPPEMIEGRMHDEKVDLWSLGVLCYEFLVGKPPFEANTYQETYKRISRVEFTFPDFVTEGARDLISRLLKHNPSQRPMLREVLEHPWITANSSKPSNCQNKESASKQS
Experimental: IC50 Determination for Inhibitors of Aurora A
• Aurora A is a serine threonine kinase involved in spindle assembly and chromosome segregation.
The assay is a typically ELISA-type assay where biotinylated substrate (PKB-GSK2) is phosphorylated. Phosphorylation is detected by peroxidase (POD) labelled polyclonal antibody (PAK<M-Ig>S-IgG-POD) and phosphopeptide monoclonal antibody (Mab) (MAK<P-GSK>M-27E5-IgG). The assay is validated for IC50-determination.
Method • This assay is performed in 96-well format for IC50 determination with 5 samples (each with 8 concentrations by twofold testing), 100 μl incubation volume and the following plate layout: […]

Structure (SMILES) | IC50 [1] [µM] | IC50 [2] [µM]
Cc1cc(Nc2nn(-c3ccc(NC(=O)c4ccccc4)cc3)c(=O)c3ccccc23)n[nH]1 [Example T-4, N-{4-[4-(5-Methyl-1H-pyrazol-3-ylamino)-1-oxo-1H-phthalazin-2-yl]-phenyl}-benzamide] | 0.1 to 10 | 0.1 to 1
Cc1cc(Nc2nn(-c3ccc(Nc4ccccc4)cc3)c(=O)c3ccccc23)n[nH]1 [Example U-1, 4-(5-Methyl-1H-pyrazol-3-ylamino)-2-(4-phenylamino-phenyl)-2H-phthalazin-1-one] | 0.1 to 10 | 0.001 to 0.1
Cc1cc(Nc2nn(C(C)C)c(=O)c3cc(CO)ccc23)n[nH]1 [Example M-9, 7-Hydroxymethyl-2-isopropyl-4-(5-methyl-1H-pyrazol-3-ylamino)-2H-phthalazin-1-one] | 0.1 to 10 | 0.001 to 0.1
Cc1cc(Nc2nn(C(C)C)c(=O)c3cc(OCc4ccncc4)ccc23)n[nH]1 [Example G-4, 2-Isopropyl-4-(5-methyl-1H-pyrazol-3-ylamino)-7-(pyridin-4-ylmethoxy)-2H-phthalazin-1-one] | 0.1 to 10 | 0.001 to 0.1
Cc1cc(Nc2nn(C)c(=O)c3ccccc23)n[nH]1 [Example A-3, 2-Methyl-4-(5-methyl-1H-pyrazol-3-ylamino)-2H-phthalazin-1-one] | 0.1 to 10 | 0.1 to 1
Cc1cccc(-n2nc(Nc3cc(C)[nH]n3)c3ccccc3c2=O)c1 [Example B-2, 4-(5-Methyl-1H-pyrazol-3-ylamino)-2-m-tolyl-2H-phthalazin-1-one] | 0.78 | 0.001 to 0.1
Cc1cc(Nc2nn(-c3ccncc3)c(=O)c3ccccc23)n[nH]1 [Example X-1, 4-(5-Methyl-1H-pyrazol-3-ylamino)-2-pyridin-4-yl-2H-phthalazin-1-one] | 0.1 to 10 | 0.1 to 1
Cc1cc(Nc2nn(-c3ccc(C(C)(C)C)cc3)c(=O)c3ccccc23)n[nH]1 [Example A-8, 2-(4-tert-Butyl-phenyl)-4-(5-methyl-1H-pyrazol-3-ylamino)-2H-phthalazin-1-one] | 0.1 to 10 | 0.1 to 1
CSc1ccc2c(Nc3cc(C)[nH]n3)nn(C(C)C)c(=O)c2c1 [Example H-1, 2-Isopropyl-4-(5-methyl-1H-pyrazol-3-ylamino)-7-methylsulfanyl-2H-phthalazin-1-one] | 0.1 to 10 | 0.001 to 0.1
Cc1cc(Nc2nn(C(C)C)c(=O)c3cc(CN4CCOCC4)ccc23)n[nH]1 [Example L-2, 2-Isopropyl-4-(5-methyl-1H-pyrazol-3-ylamino)-7-morpholin-4-ylmethyl-2H-phthalazin-1-one] | 0.1 to 10 | 0.001 to 0.1
COc1cccc(Cn2nc(Nc3cc(C)[nH]n3)c3ccccc3c2=O)c1 [Example A-12, 2-(3-Methoxy-benzyl)-4-(5-methyl-1H-pyrazol-3-ylamino)-2H-phthalazin-1-one] | 0.1 to 10 | 0.001 to 0.1
Cc1cc(Nc2nn(Cc3csc(C)n3)c(=O)c3ccccc23)n[nH]1 [Example A-16, 4-(5-Methyl-1H-pyrazol-3-ylamino)-2-(2-methyl-thiazol-4-ylmethyl)-2H-phthalazin-1-one] | 0.1 to 10 | 0.1 to 1
Cc1cc(Nc2nn(-c3ccc(C(C)(C)C)cc3)c(=O)c3cc(NC=O)ccc23)[nH]n1 [Example ZB-1, N-[3-(4-tert-Butyl-phenyl)-1-(5-methyl-2H-pyrazol-3-ylamino)-4-oxo-3,4-dihydro-phthalazin-6-yl]-formamide] | 0.1 to 10 | 0.001 to 0.1
CC(=O)Nc1ccc(Cn2nc(Nc3cc(C)[nH]n3)c3ccccc3c2=O)cc1 [Example D-1, N-{4-[4-(5-Methyl-1H-pyrazol-3-ylamino)-1-oxo-1H-phthalazin-2-ylmethyl]-phenyl}-acetamide] | 4.19 | 0.001 to 0.1
Cc1cc(Nc2nn(C(C)C)c(=O)c3cc(OCCN4CCOCC4)ccc23)n[nH]1 [Example G-5, 2-Isopropyl-4-(5-methyl-1H-pyrazol-3-ylamino)-7-(2-morpholin-4-yl-ethoxy)-2H-phthalazin-1-one] | 0.1 to 10 | 0.007
Cc1cc(Nc2nn(CC(=O)c3ccc4c(c3)OCO4)c(=O)c3ccccc23)n[nH]1 [Example E-7, 2-(2-Benzo[1,3]dioxol-5-yl-2-oxo-ethyl)-4-(5-methyl-1H-pyrazol-3-ylamino)-2H-phthalazin-1-one] | 0.1 to 10 | 0.1 to 1
Cc1cc(Nc2nn(C(C)C)c(=O)c3cc(OC(F)F)ccc23)n[nH]1 [Example G-7, 7-Difluoromethoxy-2-isopropyl-4-(5-methyl-1H-pyrazol-3-ylamino)-2H-phthalazin-1-one] | 0.1 to 10 | 0.001 to 0.1

Next, values leading:

IC50 [1] [µM] | IC50 [2] [µM] | Structure (SMILES)
0.1 to 10 | 0.001 to 0.1 | Cc1cc(Nc2nn(C(C)C)c(=O)c3cc(C(N)=O)ccc23)n[nH]1 [Example N-1, 3-Isopropyl-1-(5-methyl-1H-pyrazol-3-ylamino)-4-oxo-3,4-dihydro-phthalazine-6-carboxylic acid amide]
0.1 to 10 | 0.001 to 0.1 | Cc1cc(Nc2nn(Cc3ccccn3)c(=O)c3ccccc23)[nH]n1 [Example A-22, 4-(5-Methyl-2H-pyrazol-3-ylamino)-2-pyridin-2-ylmethyl-2H-phthalazin-1-one]
0.1 to 10 | 0.001 to 0.1 | COc1ccc2c(Nc3cc(C)[nH]n3)nn(C(C)C)c(=O)c2c1 [Example G-1, 2-Isopropyl-4-(5-methyl-1H-pyrazol-3-ylamino)-7-methoxy-2H-phthalazin-1-one]
0.1 to 10 | 0.001 to 0.1 | COc1cccc(C(=O)Cn2nc(Nc3cc(C)[nH]n3)c3ccccc3c2=O)c1 [Example E-5, 2-[2-(3-Methoxy-phenyl)-2-oxo-ethyl]-4-(5-methyl-1H-pyrazol-3-ylamino)-2H-phthalazin-1-one]
0.1 to 10 | 0.001 to 0.1 | Cc1cc(Nc2nn(-c3ccc(N4CCCCC4)cc3)c(=O)c3ccccc23)[nH]n1 [Example V-1, 4-(5-Methyl-2H-pyrazol-3-ylamino)-2-(4-piperidin-1-yl-phenyl)-2H-phthalazin-1-one]
10 to 100 | 0.001 to 0.1 | Cc1cc(Nc2nn(-c3ccc([N+](=O)[O-])cc3)c(=O)c3ccccc23)n[nH]1 [Example W-3, 4-(5-Methyl-1H-pyrazol-3-ylamino)-2-(4-nitro-phenyl)-2H-phthalazin-1-one]
0.1 to 10 | 0.001 to 0.1 | COC(=O)c1ccc2c(Nc3cc(C)[nH]n3)nn(C(C)C)c(=O)c2c1 [Example M-8, 3-Isopropyl-1-(5-methyl-1H-pyrazol-3-ylamino)-4-oxo-3,4-dihydro-phthalazine-6-carboxylic acid methyl ester]
0.1 to 10 | 0.001 to 0.1 | Cc1cc(Nc2nn(C(C)C)c(=O)c3cc(C(=O)N4CCOCC4)ccc23)n[nH]1 [Example M-2, 2-Isopropyl-4-(5-methyl-1H-pyrazol-3-ylamino)-7-(morpholine-4-carbonyl)-2H-phthalazin-1-one]
0.1 to 10 | 0.001 to 0.1 | Cc1cc(Nc2nn(C(C)C)c(=O)c3cc(F)ccc23)n[nH]1 [Example E-2, 7-Fluoro-2-isopropyl-4-(5-methyl-1H-pyrazol-3-ylamino)-2H-phthalazin-1-one]
0.1 to 10 | 0.001 to 0.1 | Cc1cc(Nc2nn(C(C)C)c(=O)c3cc(N(C)C(=O)NC(C)C)ccc23)n[nH]1 [Example I-6, 3-Isopropyl-1-[3-isopropyl-1-(5-methyl-1H-pyrazol-3-ylamino)-4-oxo-3,4-dihydro-phthalazin-6-yl]-1-methyl-urea]

Source: patent US7226923B2, “Phthalazinone derivatives” (Hoffman-La Roche Inc., priority 2004, dated 2007)
